Paper PMC6934184, “Selective DNA-PKcs inhibition extends the therapeutic index of localized radiotherapy and chemotherapy” (The Journal of Clinical Investigation, 2019)

Biological target: T1, KIT (Homo sapiens, UniProt P10721)
T1 construct: purchased Thermo Fisher Scientific (Life Technologies) SelectScreen
Assay: SelectScreen Z'LYTE
Format: biochemical
Summary of the method: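 NU5455 was profiled across the SelectScreen Broad panel of kinase activity and binding assays. Z'LYTE reactions such as CSF1R ran at apparent Km ATP, while the Adapta CAMK1 assay used ATP listed as 10. Values are given as percent.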

T1 sequence (P10721 26-976): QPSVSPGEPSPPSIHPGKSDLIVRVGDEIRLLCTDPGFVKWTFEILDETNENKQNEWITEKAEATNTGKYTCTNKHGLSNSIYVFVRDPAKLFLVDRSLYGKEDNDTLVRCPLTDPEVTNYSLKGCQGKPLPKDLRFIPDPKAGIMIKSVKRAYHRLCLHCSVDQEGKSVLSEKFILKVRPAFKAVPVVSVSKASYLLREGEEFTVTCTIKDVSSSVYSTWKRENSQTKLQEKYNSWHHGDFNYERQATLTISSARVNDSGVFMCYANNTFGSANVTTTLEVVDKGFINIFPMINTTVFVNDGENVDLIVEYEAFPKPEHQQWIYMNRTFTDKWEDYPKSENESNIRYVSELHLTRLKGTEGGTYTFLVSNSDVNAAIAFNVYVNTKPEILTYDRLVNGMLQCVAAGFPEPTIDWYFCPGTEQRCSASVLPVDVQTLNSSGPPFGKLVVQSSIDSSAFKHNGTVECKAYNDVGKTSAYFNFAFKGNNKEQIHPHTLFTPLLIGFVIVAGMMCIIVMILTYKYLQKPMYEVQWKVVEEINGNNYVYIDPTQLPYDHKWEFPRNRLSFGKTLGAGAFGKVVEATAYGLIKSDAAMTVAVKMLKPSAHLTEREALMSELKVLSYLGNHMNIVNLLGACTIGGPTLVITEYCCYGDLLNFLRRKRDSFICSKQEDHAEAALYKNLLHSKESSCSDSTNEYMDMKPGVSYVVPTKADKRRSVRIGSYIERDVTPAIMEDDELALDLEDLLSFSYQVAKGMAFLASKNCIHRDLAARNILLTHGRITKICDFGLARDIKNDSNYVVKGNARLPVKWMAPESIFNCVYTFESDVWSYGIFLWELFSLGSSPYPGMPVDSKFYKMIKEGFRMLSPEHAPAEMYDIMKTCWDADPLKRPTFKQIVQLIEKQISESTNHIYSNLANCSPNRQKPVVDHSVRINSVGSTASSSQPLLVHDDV

CN(C(=O)CN1CCOCC1)c1ccc2sc3c(-c4cccc5c(=O)cc(N6CC7CCC(C6)O7)oc45)cccc3c2c1 [NU5455]
inhibition at 1 µM: 5.3%
